# How the values were obtained:
# Experiment in all cases: KINOMEscan
# Type in all cases: binding
# Conditions in all cases: read-out: % control activity remaining
# IRAK4 = target: T1, IRAK4 (Homo sapiens, UniProt Q9NWZ3)
# T1 construct: purchased Eurofins DiscoverX KINOMEscan
# T1 sequence (Q9NWZ3 1-460): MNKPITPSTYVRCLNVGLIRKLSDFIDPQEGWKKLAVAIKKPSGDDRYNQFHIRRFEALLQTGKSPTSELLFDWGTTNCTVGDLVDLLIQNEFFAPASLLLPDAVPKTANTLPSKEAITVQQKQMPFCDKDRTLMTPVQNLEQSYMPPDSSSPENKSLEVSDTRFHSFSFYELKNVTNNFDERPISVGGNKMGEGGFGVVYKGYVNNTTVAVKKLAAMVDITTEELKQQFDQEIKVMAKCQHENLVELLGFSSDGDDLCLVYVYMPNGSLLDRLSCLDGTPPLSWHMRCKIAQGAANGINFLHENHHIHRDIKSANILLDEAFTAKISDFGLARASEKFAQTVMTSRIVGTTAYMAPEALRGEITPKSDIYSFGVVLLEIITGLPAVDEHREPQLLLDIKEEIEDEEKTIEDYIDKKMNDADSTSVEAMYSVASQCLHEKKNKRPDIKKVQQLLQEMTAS
# IRAK1 = target: T2, IRAK1 (Homo sapiens, UniProt P51617)
# T2 construct: purchased Eurofins DiscoverX KINOMEscan
# T2 sequence (P51617 whole entry): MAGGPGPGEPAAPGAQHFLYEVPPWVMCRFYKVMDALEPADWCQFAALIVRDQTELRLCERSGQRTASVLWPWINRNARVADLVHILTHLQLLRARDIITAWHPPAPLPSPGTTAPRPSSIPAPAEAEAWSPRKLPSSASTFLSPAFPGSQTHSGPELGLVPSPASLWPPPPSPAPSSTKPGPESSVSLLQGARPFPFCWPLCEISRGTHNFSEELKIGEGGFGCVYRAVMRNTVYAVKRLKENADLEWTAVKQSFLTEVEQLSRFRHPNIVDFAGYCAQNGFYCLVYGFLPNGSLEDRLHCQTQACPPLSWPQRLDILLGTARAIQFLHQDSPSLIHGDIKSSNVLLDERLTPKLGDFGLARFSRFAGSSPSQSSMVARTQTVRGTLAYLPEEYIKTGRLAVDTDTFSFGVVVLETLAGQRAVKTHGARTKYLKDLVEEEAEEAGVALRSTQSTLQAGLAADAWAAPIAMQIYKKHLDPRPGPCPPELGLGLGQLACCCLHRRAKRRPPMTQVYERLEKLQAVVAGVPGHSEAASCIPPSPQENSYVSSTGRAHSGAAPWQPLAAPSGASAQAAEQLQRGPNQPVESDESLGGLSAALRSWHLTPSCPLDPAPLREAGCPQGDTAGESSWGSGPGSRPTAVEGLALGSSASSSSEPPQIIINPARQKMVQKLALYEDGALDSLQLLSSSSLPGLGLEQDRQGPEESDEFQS
# MAPKAPK5 = target: T3, MAPKAPK5 (Homo sapiens, UniProt Q8IW41)
# T3 construct: purchased Eurofins DiscoverX KINOMEscan
# T3 sequence (Q8IW41 1-473): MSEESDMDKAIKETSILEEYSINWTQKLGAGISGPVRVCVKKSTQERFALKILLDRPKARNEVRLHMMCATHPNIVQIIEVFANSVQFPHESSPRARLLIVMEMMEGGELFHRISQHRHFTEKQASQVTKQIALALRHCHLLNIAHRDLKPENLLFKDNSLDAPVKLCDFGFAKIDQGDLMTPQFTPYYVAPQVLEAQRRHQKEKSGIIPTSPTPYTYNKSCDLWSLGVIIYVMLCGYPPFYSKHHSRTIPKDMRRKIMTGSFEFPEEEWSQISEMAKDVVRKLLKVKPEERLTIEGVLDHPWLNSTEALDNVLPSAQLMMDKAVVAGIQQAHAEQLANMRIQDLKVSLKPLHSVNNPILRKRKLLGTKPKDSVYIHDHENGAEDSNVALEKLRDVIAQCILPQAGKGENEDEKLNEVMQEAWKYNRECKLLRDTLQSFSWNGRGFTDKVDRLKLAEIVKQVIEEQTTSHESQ
# MELK = target: T4, MELK (Homo sapiens, UniProt Q14680)
# T4 construct: purchased Eurofins DiscoverX KINOMEscan
# T4 sequence (Q14680 whole entry): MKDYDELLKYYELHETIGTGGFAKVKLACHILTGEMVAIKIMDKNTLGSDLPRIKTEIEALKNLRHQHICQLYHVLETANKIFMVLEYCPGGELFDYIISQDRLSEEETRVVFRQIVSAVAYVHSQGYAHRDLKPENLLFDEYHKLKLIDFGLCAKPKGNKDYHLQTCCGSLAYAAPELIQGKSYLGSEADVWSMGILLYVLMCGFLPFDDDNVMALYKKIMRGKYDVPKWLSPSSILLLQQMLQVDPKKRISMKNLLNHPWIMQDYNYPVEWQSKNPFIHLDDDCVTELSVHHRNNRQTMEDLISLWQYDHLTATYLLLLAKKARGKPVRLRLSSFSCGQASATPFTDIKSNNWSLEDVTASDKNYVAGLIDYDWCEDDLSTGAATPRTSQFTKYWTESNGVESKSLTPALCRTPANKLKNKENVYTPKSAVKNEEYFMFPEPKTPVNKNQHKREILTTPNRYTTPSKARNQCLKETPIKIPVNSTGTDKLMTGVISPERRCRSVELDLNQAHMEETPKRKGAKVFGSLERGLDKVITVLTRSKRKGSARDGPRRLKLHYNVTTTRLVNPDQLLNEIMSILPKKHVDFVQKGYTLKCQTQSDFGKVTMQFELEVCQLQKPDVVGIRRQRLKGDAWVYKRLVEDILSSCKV
# AKT3 = target: T5, AKT3 (Homo sapiens, UniProt Q9Y243)
# T5 construct: purchased Eurofins DiscoverX KINOMEscan
# T5 sequence (Q9Y243 whole entry): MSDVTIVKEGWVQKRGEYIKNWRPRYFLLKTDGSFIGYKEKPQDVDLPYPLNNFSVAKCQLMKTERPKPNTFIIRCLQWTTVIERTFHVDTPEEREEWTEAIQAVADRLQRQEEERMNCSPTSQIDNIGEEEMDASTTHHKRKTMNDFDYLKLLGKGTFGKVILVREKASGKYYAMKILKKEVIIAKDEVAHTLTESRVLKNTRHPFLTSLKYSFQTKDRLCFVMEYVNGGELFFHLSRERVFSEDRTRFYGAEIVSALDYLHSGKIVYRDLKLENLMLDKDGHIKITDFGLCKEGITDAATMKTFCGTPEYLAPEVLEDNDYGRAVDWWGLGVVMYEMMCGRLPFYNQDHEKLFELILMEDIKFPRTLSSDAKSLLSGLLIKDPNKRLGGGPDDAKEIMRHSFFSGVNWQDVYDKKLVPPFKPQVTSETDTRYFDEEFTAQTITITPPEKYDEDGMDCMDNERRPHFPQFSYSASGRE
# [1] = target: T6, RPS6KA4(Kin.Dom.2-C-terminal) (Homo sapiens, UniProt O75676)
# T6 construct: RPS6KA4(Kin.Dom.2-C-terminal); purchased Eurofins DiscoverX KINOMEscan
# T6 sequence (O75676 411-674 limits assumed): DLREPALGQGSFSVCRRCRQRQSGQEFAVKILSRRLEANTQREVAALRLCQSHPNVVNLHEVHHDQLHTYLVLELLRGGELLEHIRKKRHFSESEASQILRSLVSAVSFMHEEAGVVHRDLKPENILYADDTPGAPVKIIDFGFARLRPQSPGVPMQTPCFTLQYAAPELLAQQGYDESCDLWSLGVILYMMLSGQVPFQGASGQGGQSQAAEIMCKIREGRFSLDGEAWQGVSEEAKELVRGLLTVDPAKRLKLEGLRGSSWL
# EGFR(L747-T751del,Sins) = target: T7, EGFR(L747-T751del,Sins) (Homo sapiens, UniProt P00533, DEL747-750/T751S)
# T7 construct: purchased Eurofins DiscoverX KINOMEscan
# T7 sequence (P00533 with tags, fused parts or gaps DEL747-750/T751S limits assumed): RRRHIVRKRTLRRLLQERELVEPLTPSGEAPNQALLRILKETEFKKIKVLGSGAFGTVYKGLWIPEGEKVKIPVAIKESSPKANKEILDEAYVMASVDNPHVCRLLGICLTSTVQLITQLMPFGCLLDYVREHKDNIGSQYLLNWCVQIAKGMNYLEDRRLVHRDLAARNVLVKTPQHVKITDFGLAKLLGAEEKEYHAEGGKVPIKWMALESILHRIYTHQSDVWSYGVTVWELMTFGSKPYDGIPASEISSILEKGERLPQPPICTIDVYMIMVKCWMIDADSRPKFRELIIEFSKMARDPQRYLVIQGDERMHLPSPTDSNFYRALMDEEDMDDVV
# PIP5K2B = target: T8, PIP5K2B (Homo sapiens, UniProt P78356)
# T8 construct: purchased Eurofins DiscoverX KINOMEscan
# T8 sequence (P78356 1-416): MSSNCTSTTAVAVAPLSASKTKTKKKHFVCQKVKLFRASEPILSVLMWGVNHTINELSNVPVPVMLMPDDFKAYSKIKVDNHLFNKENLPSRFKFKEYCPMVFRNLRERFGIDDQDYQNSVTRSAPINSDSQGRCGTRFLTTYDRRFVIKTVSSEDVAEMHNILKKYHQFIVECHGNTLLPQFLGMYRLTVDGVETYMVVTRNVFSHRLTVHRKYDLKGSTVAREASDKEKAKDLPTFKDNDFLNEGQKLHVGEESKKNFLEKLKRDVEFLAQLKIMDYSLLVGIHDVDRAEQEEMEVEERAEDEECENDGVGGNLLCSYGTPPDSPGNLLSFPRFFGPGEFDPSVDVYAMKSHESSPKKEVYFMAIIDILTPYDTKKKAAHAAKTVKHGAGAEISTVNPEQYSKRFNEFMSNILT
# PRKD1 = target: T9, PRKD1 (Homo sapiens, UniProt Q15139)
# T9 construct: purchased Eurofins DiscoverX KINOMEscan
# T9 sequence (Q15139 1-912): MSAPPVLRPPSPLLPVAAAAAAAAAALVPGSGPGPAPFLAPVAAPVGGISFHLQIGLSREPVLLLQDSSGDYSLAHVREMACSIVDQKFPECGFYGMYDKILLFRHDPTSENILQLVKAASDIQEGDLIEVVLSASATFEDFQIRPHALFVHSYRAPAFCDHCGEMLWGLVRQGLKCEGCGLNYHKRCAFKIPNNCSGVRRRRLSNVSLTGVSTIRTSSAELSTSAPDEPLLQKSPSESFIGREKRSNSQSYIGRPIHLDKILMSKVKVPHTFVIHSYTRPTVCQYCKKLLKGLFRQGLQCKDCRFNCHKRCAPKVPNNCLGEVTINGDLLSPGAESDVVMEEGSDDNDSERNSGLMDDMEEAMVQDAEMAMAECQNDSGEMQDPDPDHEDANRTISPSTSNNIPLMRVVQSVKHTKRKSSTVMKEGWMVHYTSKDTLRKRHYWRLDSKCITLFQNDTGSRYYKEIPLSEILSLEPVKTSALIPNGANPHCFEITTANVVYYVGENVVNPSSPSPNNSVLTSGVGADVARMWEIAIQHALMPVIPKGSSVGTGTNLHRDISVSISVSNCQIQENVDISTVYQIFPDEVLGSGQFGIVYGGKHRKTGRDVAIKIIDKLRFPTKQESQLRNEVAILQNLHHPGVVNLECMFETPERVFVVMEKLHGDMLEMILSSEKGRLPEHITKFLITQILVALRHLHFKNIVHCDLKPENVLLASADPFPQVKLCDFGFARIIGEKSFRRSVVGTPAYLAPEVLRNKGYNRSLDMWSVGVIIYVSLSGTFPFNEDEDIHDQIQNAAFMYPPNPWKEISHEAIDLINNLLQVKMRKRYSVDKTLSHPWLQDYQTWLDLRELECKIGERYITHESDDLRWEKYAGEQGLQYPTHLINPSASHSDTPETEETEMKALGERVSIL
# OSR1 = target: T10, OSR1 (Homo sapiens, UniProt O95747)
# T10 construct: purchased Eurofins DiscoverX KINOMEscan
# T10 sequence (O95747 whole entry): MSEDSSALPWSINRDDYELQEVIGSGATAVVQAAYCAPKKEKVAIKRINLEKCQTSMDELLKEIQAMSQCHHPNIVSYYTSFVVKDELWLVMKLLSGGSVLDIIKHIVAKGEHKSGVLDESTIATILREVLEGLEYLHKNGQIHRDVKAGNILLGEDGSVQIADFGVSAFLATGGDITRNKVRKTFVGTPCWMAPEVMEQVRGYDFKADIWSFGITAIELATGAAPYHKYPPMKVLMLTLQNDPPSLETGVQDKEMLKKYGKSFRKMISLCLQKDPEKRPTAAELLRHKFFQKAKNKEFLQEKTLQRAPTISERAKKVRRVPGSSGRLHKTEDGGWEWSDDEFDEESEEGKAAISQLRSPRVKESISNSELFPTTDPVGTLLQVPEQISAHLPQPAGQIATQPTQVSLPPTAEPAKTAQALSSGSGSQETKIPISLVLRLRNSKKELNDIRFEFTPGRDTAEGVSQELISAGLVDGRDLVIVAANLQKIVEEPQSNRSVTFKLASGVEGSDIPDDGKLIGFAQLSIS
structure (smiles),measurement,setting,value
"Clc1cc(NCC2CC2)c2ncc(-c3ccc4[nH]ncc4c3)n2n1 [compound 2, 6-Chloro-N-(cyclopropylmethyl)-3-(1H-indazol-5-yl)imidazo[1,2-b]pyridazin-8-amine]",remaining binding at 1 µM,IRAK4,92%
same,remaining binding at 1 µM,IRAK1,95%
same,remaining binding at 1 µM,MAPKAPK5,91%
same,remaining binding at 1 µM,MELK,35%
same,remaining binding at 1 µM,AKT3,100%
same,remaining binding at 1 µM,[1],87%
same,remaining binding at 1 µM,"EGFR(L747-T751del,Sins)",88%
same,remaining binding at 1 µM,PIP5K2B,78%
same,remaining binding at 1 µM,PRKD1,100%
same,remaining binding at 1 µM,OSR1,79%
O=C(CN1CCOCC1)N[C@H]1CC[C@H](Nc2cc(Cl)nn3c(-c4ccc5[nH]ncc5c4)cnc23)CC1 [compound 26],remaining binding at 1 µM,IRAK4,85%
same,remaining binding at 1 µM,IRAK1,45%
same,remaining binding at 1 µM,MAPKAPK5,98%
same,remaining binding at 1 µM,MELK,16%
same,remaining binding at 1 µM,AKT3,100%
same,remaining binding at 1 µM,[1],81%
same,remaining binding at 1 µM,"EGFR(L747-T751del,Sins)",96%
same,remaining binding at 1 µM,PIP5K2B,87%
same,remaining binding at 1 µM,PRKD1,98%
same,remaining binding at 1 µM,OSR1,99%
"CN1CCC(CNc2cc(Cl)nn3c(-c4cc5nc(Nc6ccccc6)[nH]c5cc4F)cnc23)CC1 [compound 31, 6-Chloro-3-(6-fluoro-2-(phenylamino)-1H-benzo[d]imidazol-5-yl)-N-((1-methylpiperidin-4-yl)methyl)imidazo[1,2-b]pyridazin-8-amine]",remaining binding at 1 µM,IRAK4,91%
same,remaining binding at 1 µM,IRAK1,89%
same,remaining binding at 1 µM,MAPKAPK5,82%
same,remaining binding at 1 µM,MELK,96%
same,remaining binding at 1 µM,AKT3,90%
same,remaining binding at 1 µM,[1],86%
same,remaining binding at 1 µM,"EGFR(L747-T751del,Sins)",92%
same,remaining binding at 1 µM,PIP5K2B,81%
same,remaining binding at 1 µM,PRKD1,99%
same,remaining binding at 1 µM,OSR1,100%
